What was measured:
[1] = target: T1, serotonine transporter (SERT) receptor (Homo sapiens, UniProt P31645); assay: Binding assay SERT (h), [3H]imipramine, CHO cells; settings: read-out: SERT [%]
T1 construct: expressed in transfected cells; host or cells: CHO cells
Method: (§1) The specific ligand binding to the receptors is defined as the difference between the total binding and the nonspecific binding determined in the presence of an excess of so unlabelled ligand.
(§2) The specific Ligand binding to the receptor is defined as the difference between total and non-specific binding determined in the presence of an excess of unlabelled ligand. The compounds were tested at a concentration of 1×10^−6 M, and scintillation counting was the method of detection of ligand binding.

adrenergic α1 receptor = assay: Binding assay α1 (non-selective), [3H]prazosin, rat cerebral cortex; settings: percent inhibition of control specific binding; compounds tested at 1×10^−6 M
Method: as §1, §2

dopaminergic D3 receptor = dopaminergic D3 receptor (Homo sapiens, UniProt P35462); assay: Binding assay D3 (h), [3H]methyl-spiperone, CHO cells; design: expressed in transfected cells; host or cells: CHO cells; settings: read-out: D3 [%]
Method: as §1, §2

[2] = target: serotoninergic 5-HT6 receptor (Homo sapiens, UniProt P50406); assay: Binding assay 5-HT6 (h), [3H]LSD, CHO cells; design: expressed in transfected cells; host or cells: CHO cells; settings: read-out: 5-HT6
Method: as §1, §2

[3] = target: serotoninergic 5-HT7 receptor (Homo sapiens, UniProt P34969); assay: Binding assay 5-HT7 (h), [3H]LSD, CHO cells; design: expressed in transfected cells; host or cells: CHO cells; settings: read-out: 5-HT7
Method: as §1, §2

dopaminergic D2 receptor = dopaminergic D2 receptor (Homo sapiens, UniProt P14416); assay: Binding assay D2S (h), [3H]methyl-spiperone, HEK-293 cells; design: expressed in transfected cells; host or cells: HEK-293 cells; settings: read-out: D2 [%]
Method: as §1, §2

[4] = target: T2, serotoninergic 5-HT1A receptor (Homo sapiens, UniProt P08908); assay: Binding assay 5-HT1A (h), [3H]8-OH-DPAT, HEK-293 cells; design: expressed in transfected cells; host or cells: HEK-293 cells; settings: read-out: 5-HT1A
T2 sequence (P08908 1-422): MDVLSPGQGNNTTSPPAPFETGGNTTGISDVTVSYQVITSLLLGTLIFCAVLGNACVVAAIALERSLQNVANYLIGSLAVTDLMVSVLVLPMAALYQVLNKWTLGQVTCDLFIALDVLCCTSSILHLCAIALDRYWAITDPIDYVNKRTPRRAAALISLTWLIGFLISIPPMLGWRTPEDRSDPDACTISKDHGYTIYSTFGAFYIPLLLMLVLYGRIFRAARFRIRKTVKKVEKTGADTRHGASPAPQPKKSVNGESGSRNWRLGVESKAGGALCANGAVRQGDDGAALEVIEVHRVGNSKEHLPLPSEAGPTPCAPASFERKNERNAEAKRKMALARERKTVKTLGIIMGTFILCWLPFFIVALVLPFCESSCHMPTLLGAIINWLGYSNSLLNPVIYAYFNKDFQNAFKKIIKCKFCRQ
Method: as §1, §2

[5] = target: serotoninergic 5-HT2A receptor (Homo sapiens, UniProt P28223); assay: Binding assay 5-HT2A (h), [3H]ketanserin, HEK-293 cells; design: expressed in transfected cells; host or cells: HEK-293 cells; settings: read-out: 5-HT2A
Method: as §1, §2

T1 sequence (P31645 whole entry): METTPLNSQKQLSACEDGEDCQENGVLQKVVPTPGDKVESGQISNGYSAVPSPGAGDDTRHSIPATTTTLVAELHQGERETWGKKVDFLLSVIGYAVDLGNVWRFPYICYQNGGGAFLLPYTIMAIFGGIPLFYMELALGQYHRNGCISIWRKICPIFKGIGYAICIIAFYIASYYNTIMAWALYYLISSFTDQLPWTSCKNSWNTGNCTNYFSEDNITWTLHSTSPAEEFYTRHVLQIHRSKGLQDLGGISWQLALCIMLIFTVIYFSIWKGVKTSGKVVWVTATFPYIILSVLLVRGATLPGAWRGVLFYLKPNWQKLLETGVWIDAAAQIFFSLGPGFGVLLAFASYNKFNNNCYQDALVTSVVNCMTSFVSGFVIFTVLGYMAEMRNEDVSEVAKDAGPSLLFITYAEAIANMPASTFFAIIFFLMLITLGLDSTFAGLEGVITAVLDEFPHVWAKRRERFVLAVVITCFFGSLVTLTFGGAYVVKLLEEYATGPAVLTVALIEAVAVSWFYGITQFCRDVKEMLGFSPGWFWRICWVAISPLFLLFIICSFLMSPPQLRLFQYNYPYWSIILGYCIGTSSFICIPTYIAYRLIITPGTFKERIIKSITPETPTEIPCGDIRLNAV
Chain of serotoninergic 5-HT2A receptor (P28223 whole entry): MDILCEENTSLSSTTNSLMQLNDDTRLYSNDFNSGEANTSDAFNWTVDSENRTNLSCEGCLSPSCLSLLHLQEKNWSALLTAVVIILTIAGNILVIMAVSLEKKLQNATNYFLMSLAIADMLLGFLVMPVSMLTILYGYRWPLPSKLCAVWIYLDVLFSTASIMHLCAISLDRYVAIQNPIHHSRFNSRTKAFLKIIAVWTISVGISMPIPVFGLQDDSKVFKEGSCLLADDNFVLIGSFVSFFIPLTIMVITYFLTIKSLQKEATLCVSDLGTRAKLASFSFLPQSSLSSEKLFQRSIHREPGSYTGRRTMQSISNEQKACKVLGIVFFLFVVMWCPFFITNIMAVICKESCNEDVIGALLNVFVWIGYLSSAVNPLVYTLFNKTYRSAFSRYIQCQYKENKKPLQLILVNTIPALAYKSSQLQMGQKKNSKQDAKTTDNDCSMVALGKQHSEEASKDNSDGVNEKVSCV
Chain of dopaminergic D2 receptor (P14416 1-414 isoform P14416-2): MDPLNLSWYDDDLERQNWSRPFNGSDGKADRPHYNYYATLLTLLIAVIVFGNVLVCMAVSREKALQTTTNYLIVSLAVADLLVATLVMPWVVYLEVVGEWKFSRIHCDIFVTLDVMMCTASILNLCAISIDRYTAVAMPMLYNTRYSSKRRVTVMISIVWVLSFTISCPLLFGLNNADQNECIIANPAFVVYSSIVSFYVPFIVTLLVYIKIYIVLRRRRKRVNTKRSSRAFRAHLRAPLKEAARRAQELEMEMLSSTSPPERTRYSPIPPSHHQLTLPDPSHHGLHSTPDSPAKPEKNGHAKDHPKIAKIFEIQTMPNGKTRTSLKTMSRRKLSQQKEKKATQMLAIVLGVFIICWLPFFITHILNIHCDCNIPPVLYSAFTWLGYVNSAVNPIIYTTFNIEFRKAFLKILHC
Chain of serotoninergic 5-HT7 receptor (P34969 whole entry): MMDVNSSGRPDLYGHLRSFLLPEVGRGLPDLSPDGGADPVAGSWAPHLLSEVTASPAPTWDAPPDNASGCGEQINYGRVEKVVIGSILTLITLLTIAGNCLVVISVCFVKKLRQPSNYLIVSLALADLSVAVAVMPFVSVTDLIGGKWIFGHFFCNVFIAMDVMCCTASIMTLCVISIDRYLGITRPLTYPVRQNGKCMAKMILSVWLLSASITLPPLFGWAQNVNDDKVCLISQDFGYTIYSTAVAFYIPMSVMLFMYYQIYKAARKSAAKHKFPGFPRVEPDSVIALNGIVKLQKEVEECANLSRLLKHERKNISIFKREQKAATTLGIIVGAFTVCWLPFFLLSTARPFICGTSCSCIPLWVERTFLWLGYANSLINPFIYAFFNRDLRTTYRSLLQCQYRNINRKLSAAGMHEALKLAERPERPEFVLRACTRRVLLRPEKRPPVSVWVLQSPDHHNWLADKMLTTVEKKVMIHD
Chain of serotoninergic 5-HT6 receptor (P50406 whole entry): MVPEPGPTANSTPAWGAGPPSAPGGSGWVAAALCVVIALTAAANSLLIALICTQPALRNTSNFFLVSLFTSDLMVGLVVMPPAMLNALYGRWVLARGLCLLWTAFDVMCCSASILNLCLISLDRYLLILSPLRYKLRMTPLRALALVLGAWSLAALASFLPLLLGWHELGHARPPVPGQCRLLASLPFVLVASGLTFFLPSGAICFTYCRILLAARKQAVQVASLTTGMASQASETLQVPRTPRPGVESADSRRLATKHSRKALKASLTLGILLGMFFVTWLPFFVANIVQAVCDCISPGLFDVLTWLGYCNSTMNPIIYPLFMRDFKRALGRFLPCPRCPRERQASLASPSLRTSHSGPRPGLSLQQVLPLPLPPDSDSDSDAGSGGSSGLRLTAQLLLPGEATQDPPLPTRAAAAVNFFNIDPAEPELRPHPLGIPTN
Chain of dopaminergic D3 receptor (P35462 whole entry): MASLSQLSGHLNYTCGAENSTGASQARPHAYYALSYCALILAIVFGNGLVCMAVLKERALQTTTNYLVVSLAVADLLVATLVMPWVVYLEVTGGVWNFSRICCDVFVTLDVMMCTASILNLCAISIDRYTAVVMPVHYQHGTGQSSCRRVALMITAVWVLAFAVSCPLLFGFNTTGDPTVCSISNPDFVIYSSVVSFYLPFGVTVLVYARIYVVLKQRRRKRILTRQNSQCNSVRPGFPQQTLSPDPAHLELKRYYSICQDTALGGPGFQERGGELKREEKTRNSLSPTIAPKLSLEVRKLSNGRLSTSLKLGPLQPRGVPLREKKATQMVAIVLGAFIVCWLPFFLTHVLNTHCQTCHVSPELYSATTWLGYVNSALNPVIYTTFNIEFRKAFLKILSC

SMILES | inhibition at 1 µM [1] | α1 [%] (adrenergic α1 receptor) | inhibition at 1 µM (dopaminergic D3 receptor) | inhibition at 1 µM [2] | inhibition at 1 µM [3] | inhibition at 1 µM (dopaminergic D2 receptor) | inhibition at 1 µM [4] | inhibition at 1 µM [5]
O=S(=O)(NCCCCN1CCC(c2noc3cc(F)ccc23)CC1)c1cccc(Br)c1 [Compound 109, 3-Bromo-N-[4-[4-(6-fluoro-1,2-benzoxazol-3-yl)piperidin-1-yl]butyl]benzenesulphonamide] | 15% | 101% | 99% | 84% | 92% | 100% | 86% | 93%
O=S(=O)(NCCCCN1CCC(c2noc3cc(F)ccc23)CC1)c1ccc(-c2ccccc2)cc1 [Compound 111, N-[4-[4-(6-Fluoro-1,2-benzoxazol-3-yl)piperidin-1-yl]butyl]-4-phenylbenzenesulphonamide] | -14% | 100% | 93% | 95% | 93% | 108% | 39% | 96%
O=S(=O)(NCCCN1CCC(c2noc3cc(F)ccc23)CC1)c1ccc(-c2ccccc2)cc1 [Compound 112, N-[3-[4-(6-Fluoro-1,2-benzoxazol-3-yl)piperidin-1-yl]propyl]-4-phenylbenzenesulphonamide] | -17% | 99% | 98% | 94% | 95% | 103% | 20% | 93%
Cc1[nH]c2ccc(Cl)cc2c1C1=CCN(CCCCNS(=O)(=O)c2cccc(Cl)c2)CC1 [Compound 137, N-[4-[4-(5-Chloro-2-methyl-1H-indol-3-yl)-3,6-dihydro-2H-pyridin-1-yl]butyl]-3-chlorobenzenesulphonamide] | 38% | 10% | 92% | 91% | 33% | 65% | 39% | 47%
Cc1[nH]c2ccc(Cl)cc2c1C1=CCN(CCCNS(=O)(=O)c2cccc(Cl)c2)CC1 [Compound 138, N-[3-[4-(5-Chloro-2-methyl-1H-indol-3-yl)-3,6-dihydro-2H-pyridin-1-yl]propyl]-3-chlorobenzenesulphonamide] | 25% | 8% | 57% | 95% | 52% | 40% | 54% | 62%
Cc1[nH]c2ccc(Cl)cc2c1C1=CCN(CCCCNS(=O)(=O)c2cccc(F)c2)CC1 [Compound 139, N-[4-[4-(5-Chloro-2-methyl-1H-indol-3-yl)-3,6-dihydro-2H-pyridin-1-yl]butyl]-3-fluorobenzenesulphonamide] | 17% | 20% | 92% | 96% | 56% | 52% | 57% | 41%
Cc1[nH]c2ccc(Cl)cc2c1C1=CCN(CCCNS(=O)(=O)c2cccc(F)c2)CC1 [Compound 140, N-[3-[4-(5-Chloro-2-methyl-1H-indol-3-yl)-3,6-dihydro-2H-pyridin-1-yl]propyl]-3-fluorobenzenesulphonamide] | 14% | 17% | 73% | 92% | 81% | 47% | 56% | 68%
Cc1c(S(=O)(=O)NCCCCN2CCN(c3cccc4[nH]c(=O)[nH]c34)CC2)sc2ccc(Cl)cc12 [Compound 165, 5-Chloro-3-methyl-N-[4-[4-(2-oxo-1,3-dihydrobenzimidazol-4-yl)piperazin-1-yl]butyl]-1-benzothiophene-2-sulfonamide] | 4% | 47% | 89% | -16% | 86% | 64% | 70% | 37%
O=S(=O)(NCCCCN1CCN(c2nsc3ccccc23)CC1)c1ccc(Cl)s1 [Compound 195, N-[4-[4-(1,2-Benzothiazol-3-yl)piperazin-1-yl]butyl]-5-chloro-thiophene-2-sulphonamide] | -3% | 96% | 89% | 60% | 98% | 99% | 89% | 91%
O=C1COc2c(cccc2N2CCN(CCCCNS(=O)(=O)c3cccc(Cl)c3)CC2)N1 [Compound 209, 3-Chloro-N-[4-[4-(3-oxo-4H-1,4-benzoxazin-8-yl)piperazin-1-yl]butyl]benzenesulphonamide] | -1% | 90% | 103% | 70% | 85% | 82% | 92% | 29%
O=C1COc2c(cccc2N2CCN(CCCCNS(=O)(=O)c3cccc(F)c3)CC2)N1 [Compound 211, 3-Fluoro-N-[4-[4-(3-oxo-4H-1,4-benzoxazin-8-yl)piperazin-1-yl]butyl]benzenesulphonamide] | 33% | 80% | 102% | 32% | 81% | 81% | 86% | 32%
O=S(=O)(NCCCCN1CCN(c2nsc3ccccc23)CC1)c1ccc(F)cc1 [Compound 225, N-[4-[4-(1,2-Benzothiazol-3-yl)piperazin-1-yl]butyl]-4-fluorobenzenesulphonamide] | -4% | 94% | 76% | 74% | 92% | 77% | 87% | 84%
O=S(=O)(NCCCCN1CCN(c2nsc3ccccc23)CC1)c1ccc(F)c(F)c1 [Compound 226, N-[4-[4-(1,2-Benzothiazol-3-yl)piperazin-1-yl]butyl]-3,4-difluorobenzenesulphonamide] | 4% | 94% | 90% | 78% | 92% | 87% | 90% | 100%
O=S(=O)(NCCCCN1CCN(c2nsc3ccccc23)CC1)c1ccc(Cl)cc1 [Compound 227, N-[4-[4-(1,2-Benzothiazol-3-yl)piperazin-1-yl]butyl]-4-chlorobenzenesulphonamide] | 2% | 92% | 90% | 76% | 94% | 104% | 89% | 90%
O=S(=O)(NCCCCN1CCN(c2nsc3ccccc23)CC1)c1ccc(Cl)c(Cl)c1 [Compound 228, N-[4-[4-(1,2-Benzothiazol-3-yl)piperazin-1-yl]butyl]-3,4-dichlorobenzenesulphonamide] | 16% | 92% | 92% | 87% | 98% | 103% | 81% | 91%
O=S(=O)(NCCCCN1CCN(c2nsc3ccccc23)CC1)c1ccc(Br)cc1 [Compound 229, N-[4-[4-(1,2-Benzothiazol-3-yl)piperazin-1-yl]butyl]-4-bromobenzenesulphonamide] | 9% | 96% | 95% | 75% | 89% | 101% | 92% | 80%
